From patent US20250082760A1 (priority 2020, published 2025)
Converted amounts (≈) assume the structure as drawn. Where two headings read alike, the source gives them in different places.

Key:
[1] = tested on: hot plate pain threshold in ICR mice; experiment: hot plate method, compound 1, intravenous administration; format: in vivo; conditions: for Pain threshold before administration: baseline; for Pain threshold before administration / Pain threshold after administration: X ± SD
Method: (§1) 20 ICR mice, 18-22 g, half male and half male, were purchased from the animal room of Xi′an Jiaotong University School of Medicine; rearing conditions: room temperature 18-20° C., same sex rearing in separate cages, 12-hour light, regular ventilation, conventional full-price solid feed feeding, bedding changed every two days; 20 mice were randomly divided into 2 groups (low-dose test drug group, test drug high-dose group) with 10 mice in each group (5 ♀5).
An appropriate amount of compound 1 was accurately weighed and dissolved in 0.9% physiological saline to prepare a concentration of 5 mg/ml (dissolved state is good, basically transparent), which was used as a mother solution. During the test, according to the test requirements, diluted with normal saline to an appropriate concentration.
The first group was the low-dose test drug group, and the test drug was given 10 mg/kg by tail vein injection; the second group was the test drug high-dose group, and the test drug was given 15 mg/kg by tail vein injection.
(§2) The mice were placed in a hot plate apparatus at a temperature of 55±0.5° C., and the pain thresholds of the mice were measured and recorded before administration, 30 minutes after administration, 60 minutes after administration, and 120 minutes after administration.

[2] = tested on: hot plate pain threshold in mice; experiment: hot plate method, compound 1, intragastric administration; format: in vivo; conditions: for Pain response time Before administration: baseline, n 10; for Pain response time Before administration / Pain response time After administration: X ± SD; for Pain response time After administration / Pain response time extension rate: 60 min after administration; for Pain response time extension rate: blank group 3.9 ± 6.6
Method: All the mice participating in the experiment were subjected to hot plate pain threshold detection before the experiment, and qualified mice with pain threshold of 10-40 s were screened.
Accurately weigh an appropriate amount of compound 1, dissolve it in distilled water and prepare a mother liquor of 100 mg/ml, then dilute to 1.25 mg/ml (25 mg/kg), 2.5 mg/ml (50 mg/kg) with double distilled water respectively; accurately weigh an appropriate amount of the positive control drug gabapentin, dissolve in distilled water and prepare a 100 mg/ml mother solution, and then dilute to 10 mg/ml (200 mg/kg) with double distilled water. All medicines are prepared and utilized as needed.
40 only qualified mice were divided into 4 groups, half male and half female in each group. The first group is the blank group, no administration; the second group is the positive control (gabapentin) 25 mg/kg group; the third group is the test drug 25 mg/kg group; the fourth group is the test drug 50 mg/kg group 4. All were administered by gavage.
The mice were placed in a hot plate apparatus at a temperature of 55±0.5° C., and the pain thresholds of the mice were measured and recorded before administration and 60 min after administration.

[3] = water solubility experiments; format: physicochemical
[4] = tested on: hot plate pain threshold in ICR mice; experiment: hot plate method, compound 2, intravenous administration; format: in vivo; conditions: for Pain threshold before administration: baseline; for Pain threshold before administration / Pain threshold after administration: X ± SD
Method: as §1, with “same-sex” for “same sex rearing in separate”, “feeding, and the” for “feeding,”, “bedding was” for “bedding”, “group),” for “group) with”, “♀95).” for “♀5).”
An appropriate amount of compound 2 was accurately weighed and dissolved in 5% glucose water to prepare a concentration of 2 mg/ml (dissolved state is good, basically transparent), which was utilized as a mother solution. During the test, according to the test requirements, it was diluted with 5% glucose aqueous solution to an appropriate concentration.
The first group was the high-dose test drug group, and the test drug was given 10 mg/kg by tail vein injection; the second group was the low-dose test drug group, and the test drug was given 3 mg/kg by tail vein injection.
as §2

[5] = tested on: convulsions in mice induced by electrical stimulation; experiment: anticonvulsant effect on mice induced by electrical stimulation; format: in vivo
Method: (1) Divide 40 mice (20♀20) into 5 groups at random, with 8 mice (4♀4) in each group, and label No. 1 to No. 8 with picric acid respectively; (2) All mice were tested according to the order of groups and labels electrical stimulation, the initial voltage was 40V, the voltage was increased by 2.5V each time, the time interval between two electrical stimulations for the same mouse was 20 min, the threshold voltage value of convulsion and the time from convulsion to complete recovery were recorded, and the dead mice were discarded, qualified mice were screened; (3) After screening, 7 mice (2♀5) in the 40 mice could not recover after convulsions and died, and the remaining 33 qualified mice […]; (4) From standby 7 mice were screened out as a supplement, and the number of the dead mice in step (2) was marked with picric acid and added to the corresponding groups, so that a total of 40 (20♀20) qualified mice in 5 groups were finally obtained., all mice were weighed and recorded.
Positive drug: sodium valproate (specification 0.2 g), take 1 tablet in a mortar, add 20 ml of 0.5% CMC-Na solution while grinding, to a suspended state, set EP tube for use; test drug (compound 5): Dissolve in distilled water to 5, 10, and 20 mg/ml solutions, respectively, and set EP tubes for later use.
Electrical stimulation was performed 1.5 hours after the last administration, and each mouse was given the threshold voltage measured before to observe the experimental phenomenon and record whether there was convulsions and death occurred.
The first group was the blank control group, which was given 0.4 ml/20 g of 0.5% CMC-Na by gavage; the second group was the positive drug control group, which was given sodium valproate 200 mg/kg by gavage; the third group was the test drug the low-dose group, which was given 100 mg/kg of compound 5 by gavage; the fourth group was the test drug medium-dose group, which was given 200 mg/kg of compound 5 by gavage; the fifth group was the test drug high-dose group, which was given 400 mg/kg of compound 5 by gavage.
1.5 h after the last administration, electrical stimulation was performed according to the threshold voltage measured before each mouse, the experimental phenomenon was observed, and the occurrence of convulsions and death were recorded. If convulsion occurs, record the time of complete recovery; if no convulsion occurs, continue to increase the voltage with a gradient of 2.5V to measure the current threshold voltage value and recovery time.
Strictly follow the 5 periods of convulsion in mice, namely, latency period, rigid flexion period, hindlimb extension period, clonic period and recovery period to judge whether the mice have convulsions after electrical stimulation, and the phenomenon of death can not be recovered after convulsions.

[6] = 10 mg/kg tail vein group, hot plate 55±0.5° C.

**Q.** For `CC(C)c1cccc(C(C)C)c1OC(=O)CC1(CN)CCCCC1.Cl` [Compound 1, 2,6-diisopropylphenyl 2-(1-(aminomethyl)cyclohexyl)acetate hydrochloride], which “Pain threshold before administration” value [1, 6] is on record?
**A.** 8.92 ± 3.05 s

**Q.** What about the “Pain threshold after administration” value ([1]; 10 mg/kg tail vein, 30 min) of the same compound?
**A.** 17.09 ± 6.05 s

**Q.** And the “Pain threshold after administration” value ([1]; 10 mg/kg tail vein, 60 min)?
**A.** 16.96 ± 6.13 s

**Q.** What about the “Pain threshold after administration” value ([1]; 10 mg/kg tail vein, 120 min) of the same compound?
**A.** 12.36 ± 5.75 s

**Q.** And the “Pain threshold before administration” value ([1]; 15 mg/kg tail vein group)?
**A.** 10.90 ± 3.72 s

**Q.** What about the “Pain threshold after administration” value ([1]; 15 mg/kg tail vein, 30 min) of the same compound?
**A.** 18.88 ± 6.06 s

**Q.** What about the “Pain threshold after administration” value ([1]; 15 mg/kg tail vein, 60 min) of the same compound?
**A.** 13.49 ± 6.53 s

**Q.** What about the “Pain threshold after administration” value ([1]; 15 mg/kg tail vein, 120 min) of the same compound?
**A.** 6.47 ± 5.40 s

**Q.** And the “analgesic effect in the hot plate test” value ([1]; intravenous 10 and 15 mg/kg, 10 mg/kg best, good within 30-60 minutes after injection)?
**A.** good analgesic effect

**Q.** And the “Pain response time Before administration” value ([2]; 25 mg/kg gavage group)?
**A.** 22.0 ± 10.2 s

**Q.** What about the “Pain response time After administration” value ([2]; 25 mg/kg gavage) of the same compound?
**A.** 32.1 ± 14.5 s

**Q.** And the “Pain response time extension rate” value ([2]; 25 mg/kg gavage)?
**A.** 59.3 ± 66.7 %

**Q.** What about the “Pain response time Before administration” value ([2]; 50 mg/kg gavage group) of the same compound?
**A.** 20.0 ± 5.9 s

**Q.** What about the “Pain response time After administration” value ([2]; 50 mg/kg gavage) of the same compound?
**A.** 40.2 ± 17.9 s

**Q.** And the “Pain response time extension rate” value ([2]; 50 mg/kg gavage)?
**A.** 100.0 ± 91.1 %

**Q.** And the “analgesic effect, hot plate, gavage” value ([2]; 25 and 50 mg/kg gavage, comparable to gabapentin)?
**A.** can prolong the reaction time of hot plate pain

**Q.** And the solubility [3]?
**A.** 18000 µg/mL

**Q.** And the logP (physchem)?
**A.** 1.1

**Q.** What does the source list for `CC(C)c1cc(I)cc(C(C)C)c1OC(=O)CC1(CN)CCCCC1.Cl` [Compound 2, 4-iodo-2,6-diisopropylphenyl 2-(1-(aminomethyl)cyclohexyl)acetate hydrochloride]?
**A.** solubility [3]: 13000 µg/mL; logP (physchem): 1.66; Pain threshold before administration ([4]; 3 mg/kg tail vein group): 11.33 ± 4.08 s; Pain threshold after administration ([4]; 3 mg/kg tail vein, 30 min): 12.41 ± 3.67 s; Pain threshold after administration ([4]; 3 mg/kg tail vein, 60 min): 10.16 ± 3.38 s; Pain threshold after administration ([4]; 3 mg/kg tail vein, 120 min): 6.47 ± 5.40 s; Pain threshold before administration [4, 6]: 13.18 ± 3.33 s; Pain threshold after administration ([4]; 10 mg/kg tail vein, 30 min): 18.10 ± 5.96 s; Pain threshold after administration ([4]; 10 mg/kg tail vein, 60 min): 13.98 ± 6.78 s; Pain threshold after administration ([4]; 10 mg/kg tail vein, 120 min): 14.18 ± 6.90 s; analgesic effect in the hot plate test ([4]; intravenous, at 10 mg/kg performed well 30 minutes after injection): good analgesic effect

**Q.** With `CC(C)c1cccc(C(C)C)c1OC(=O)NCC1(CC(=O)O)CCCCC1` [Compound 3] as the compound, how does the solubility [3] read?
**A.** 80 µg/mL (≈ 213 µM)

**Q.** And the logP (physchem)?
**A.** 2.38

**Q.** Which solubility [3] does the source give for `CC(C)c1cc(I)cc(C(C)C)c1OC(=O)NCC1(CC(=O)O)CCCCC1` [Compound 4] here?
**A.** 40 µg/mL (≈ 79.8 µM)

**Q.** What about the logP (physchem) of the same compound?
**A.** 3.52

**Q.** Which results are given for `CC(C)c1cccc(C(C)C)c1OC(=O)CC1(C[N+](C)(C)C)CCCCC1` [Compound 6, (1-(2-(2,6-diisopropylphenoxy)-2-oxoethyl)cyclohexyl)-N,N,N-tri-methylmethanaminium iodide]?
**A.** solubility [3]: 900 µg/mL; logP (physchem; fat/water partition (phases not further specified)): 1.54

**Q.** With `CCCC(CCC)C(=O)[O-].[Na+]` [sodium valproate, reference compound] as the compound, how does the “anti-electrical convulsion ability (threshold voltage increase)” value ([5]; compared with blank group, sodium valproate 200 mg/kg gavage, 1.5 h after last administration, p<0.05) read?
**A.** significantly improve

**Q.** And the “weight gain of mice” value ([5]; mouse, in vivo)?
**A.** no difference
